In ChEMBL document CHEMBL3797052 (Eur J Med Chem, 2016):

Columns and labels:
Assay type in all cases: functional
NCI-H322M = test: Antiproliferative activity against human NCI-H322M cells assessed as cell growth at 10^-7 M after 48 hrs by sulforhodamine B assay; conditions: read-out: Activity
CCRF-CEM = test: Antiproliferative activity against human CCRF-CEM cells assessed as cell growth at 10^-5 M after 48 hrs by sulforhodamine B assay; conditions: read-out: Activity
[1] = Antiproliferative activity against human HL-60(TB) cells assessed as cell growth at 10^-5 M after 48 hrs by sulforhodamine B assay; conditions: HL-60, 48 h, read-out: Activity
K562 = test: Antiproliferative activity against human K562 cells assessed as cell growth at 10^-5 M after 48 hrs by sulforhodamine B assay; conditions: K562, 48 h, read-out: Activity
[2] = Antiproliferative activity against human RPMI8226 cells assessed as cell growth at 10^-5 M after 48 hrs by sulforhodamine B assay; conditions: RPMI-8226, 48 h, read-out: Activity
NCI-H23 = test: Antiproliferative activity against human NCI-H23 cells assessed as cell growth at 10^-5 M after 48 hrs by sulforhodamine B assay; conditions: NCI-H23, 48 h, read-out: Activity
HT-29 = test: Antiproliferative activity against human HT-29 cells assessed as cell growth at 10^-5 M after 48 hrs by sulforhodamine B assay; conditions: HT-29, 48 h, read-out: Activity
[3] = Antiproliferative activity against human SW620 cells assessed as cell growth at 10^-5 M after 48 hrs by sulforhodamine B assay; conditions: SW-620, 48 h, read-out: Activity
[4] = Antiproliferative activity against human SF268 cells assessed as cell growth at 10^-5 M after 48 hrs by sulforhodamine B assay; conditions: SF-268, 48 h, read-out: Activity
[5] = Antiproliferative activity against human SF539 cells assessed as cell growth at 10^-5 M after 48 hrs by sulforhodamine B assay; conditions: SF-539, 48 h, read-out: Activity
U-251 [6] = test: Antiproliferative activity against human U251 cells assessed as cell growth at 10^-5 M after 48 hrs by sulforhodamine B assay; conditions: U-251, 48 h, read-out: Activity
M14 = test: Antiproliferative activity against human M14 cells assessed as cell growth at 10^-5 M after 48 hrs by sulforhodamine B assay; conditions: M14, 48 h, read-out: Activity
SK-MEL-2 = test: Antiproliferative activity against human SK-MEL-2 cells assessed as cell growth at 10^-5 M after 48 hrs by sulforhodamine B assay; conditions: SK-MEL-2, 48 h, read-out: Activity
SK-MEL-28 = test: Antiproliferative activity against human SK-MEL-28 cells assessed as cell growth at 10^-5 M after 48 hrs by sulforhodamine B assay; conditions: SK-MEL-28, 48 h, read-out: Activity
SK-MEL-5 = test: Antiproliferative activity against human SK-MEL-5 cells assessed as cell growth at 10^-5 M after 48 hrs by sulforhodamine B assay; conditions: SK-MEL-5, 48 h, read-out: Activity
[7] = Antiproliferative activity against human UACC257 cells assessed as cell growth at 10^-5 M after 48 hrs by sulforhodamine B assay; conditions: UACC-257, 48 h, read-out: Activity
[8] = Antiproliferative activity against human OVCAR4 cells assessed as cell growth at 10^-5 M after 48 hrs by sulforhodamine B assay; conditions: OVCAR-4, 48 h, read-out: Activity
[9] = Antiproliferative activity against human OVCAR8 cells assessed as cell growth at 10^-5 M after 48 hrs by sulforhodamine B assay; conditions: OVCAR-8, 48 h, read-out: Activity
[10] = Antiproliferative activity against human NCI-ADR-RES cells assessed as cell growth at 10^-5 M after 48 hrs by sulforhodamine B assay; conditions: read-out: Activity
[11] = Antiproliferative activity against human SKOV3 cells assessed as cell growth at 10^-5 M after 48 hrs by sulforhodamine B assay; conditions: SK-OV-3, 48 h, read-out: Activity
A498 = test: Antiproliferative activity against human A498 cells assessed as cell growth at 10^-5 M after 48 hrs by sulforhodamine B assay; conditions: A498, 48 h, read-out: Activity
ACHN = test: Antiproliferative activity against human ACHN cells assessed as cell growth at 10^-5 M after 48 hrs by sulforhodamine B assay; conditions: read-out: Activity
[12] = Antiproliferative activity against human Caki1 cells assessed as cell growth at 10^-5 M after 48 hrs by sulforhodamine B assay; conditions: CAKI-1, 48 h, read-out: Activity
[13] = Antiproliferative activity against human RXF393 cells assessed as cell growth at 10^-5 M after 48 hrs by sulforhodamine B assay; conditions: RXF 393, 48 h, read-out: Activity
SN12C = test: Antiproliferative activity against human SN12C cells assessed as cell growth at 10^-5 M after 48 hrs by sulforhodamine B assay; conditions: read-out: Activity
[14] = Antiproliferative activity against human TK10 cells assessed as cell growth at 10^-5 M after 48 hrs by sulforhodamine B assay; conditions: TK-10, 48 h, read-out: Activity
MCF7 = test: Antiproliferative activity against human MCF7 cells assessed as cell growth at 10^-5 M after 48 hrs by sulforhodamine B assay; conditions: MCF7, 48 h, read-out: Activity
U-251 [15] = test: Antiproliferative activity against human U251 cells assessed as growth inhibition after 48 hrs by sulforhodamine B assay; conditions: U-251, 48 h
NCI-H460 = test: Antiproliferative activity against human NCI-H460 cells assessed as growth inhibition after 48 hrs by sulforhodamine B assay; conditions: NCI-H460, 48 h
[16] = Antiproliferative activity against human HL-60(TB) cells assessed as cell growth at 10^-8 M after 48 hrs by sulforhodamine B assay; conditions: HL-60, 48 h, read-out: Activity
[17] = Antiproliferative activity against human HOP92 cells assessed as cell growth at 10^-6 M after 48 hrs by sulforhodamine B assay; conditions: HOP-92, 48 h, read-out: Activity
MDA-MB-468 = test: Antiproliferative activity against human MDA-MB-468 cells assessed as cell growth at 10^-5 M after 48 hrs by sulforhodamine B assay; conditions: MDA-MB-468, 48 h, read-out: Activity
[18] = Antiproliferative activity against human HCT15 cells assessed as cell growth at 10^-4 M after 48 hrs by sulforhodamine B assay; conditions: HCT-15, 48 h, read-out: Activity
[19] = Antiproliferative activity against human TK10 cells assessed as cell growth at 10^-8 M after 48 hrs by sulforhodamine B assay; conditions: TK-10, 48 h, read-out: Activity
[20] = Antiproliferative activity against human UACC257 cells assessed as cell growth at 10^-4 M after 48 hrs by sulforhodamine B assay; conditions: UACC-257, 48 h, read-out: Activity
[21] = Antiproliferative activity against human UACC62 cells assessed as cell growth at 10^-4 M after 48 hrs by sulforhodamine B assay; conditions: UACC-62, 48 h, read-out: Activity
[22] = Antiproliferative activity against human UO31 cells assessed as cell growth at 10^-4 M after 48 hrs by sulforhodamine B assay; conditions: UO-31, 48 h, read-out: Activity

CNC(=O)c1cc(Oc2ccc3nc(NC(=O)Nc4cc(C(F)(F)F)cc(C(F)(F)F)c4)sc3c2)ccn1
growth at 0.1 µM (NCI-H322M): 102% | growth at 10 µM (CCRF-CEM): -16% | growth at 10 µM [1]: -46% | growth at 10 µM (K562): -20% | growth at 10 µM [2]: -37% | growth at 10 µM (NCI-H23): -59% | growth at 10 µM (HT-29): -80% | growth at 10 µM [3]: -74% | growth at 10 µM [4]: -77% | growth at 10 µM [5]: -78% | growth at 10 µM (U-251 [6]): -98% | growth at 10 µM (M14): -74% | growth at 10 µM (SK-MEL-2): -53% | growth at 10 µM (SK-MEL-28): -75% | growth at 10 µM (SK-MEL-5): -76% | growth at 10 µM [7]: -82% | growth at 10 µM [8]: -64% | growth at 10 µM [9]: -93% | growth at 10 µM [10]: -62% | growth at 10 µM [11]: -71% | growth at 10 µM (A498): -79% | growth at 10 µM (ACHN): -77% | growth at 10 µM [12]: -77% | growth at 10 µM [13]: -69% | growth at 10 µM (SN12C): -58% | growth at 10 µM [14]: -79% | growth at 10 µM (MCF7): -59% | GI50 (U-251 [15]): 1.02 µM | LC50 (U-251 [15]): 4.78 µM | TGI (U-251 [15]): 2.2 µM | GI50 (NCI-H460): 1.23 µM | LC50 (concentration killing 50% of cells) (NCI-H460): 6.6 µM | TGI (NCI-H460): 2.85 µM | growth at 0.01 µM [16]: 110% | growth at 1 µM [17]: -2% | growth at 10 µM (MDA-MB-468): -70% | growth at 100 µM [18]: -67% | growth at 0.01 µM [19]: 95% | growth at 100 µM [20]: -94% | growth at 100 µM [21]: -73% | growth at 100 µM [22]: -79%

CNC(=O)c1cc(Oc2ccc3nc(NC(=O)Nc4ccc(Cl)c(C(F)(F)F)c4)sc3c2)ccn1
growth at 0.1 µM (NCI-H322M): 103% | growth at 10 µM (CCRF-CEM): 22% | growth at 10 µM [1]: 52% | growth at 10 µM (K562): 32% | growth at 10 µM [2]: -10% | growth at 10 µM (NCI-H23): -8% | growth at 10 µM (HT-29): 5% | growth at 10 µM [3]: 4% | growth at 10 µM [4]: 1% | growth at 10 µM [5]: -60% | growth at 10 µM (U-251 [6]): -66% | growth at 10 µM (M14): -29% | growth at 10 µM (SK-MEL-2): 37% | growth at 10 µM (SK-MEL-28): -68% | growth at 10 µM (SK-MEL-5): -62% | growth at 10 µM [7]: 14% | growth at 10 µM [8]: -75% | growth at 10 µM [9]: -40% | growth at 10 µM [10]: -21% | growth at 10 µM [11]: -54% | growth at 10 µM (A498): 4% | growth at 10 µM (ACHN): -67% | growth at 10 µM [12]: -16% | growth at 10 µM [13]: -45% | growth at 10 µM (SN12C): 1% | growth at 10 µM [14]: -55% | growth at 10 µM (MCF7): -3% | GI50 (U-251 [15]): 1.79 µM | TGI (U-251 [15]): 3.75 µM | GI50 (NCI-H460): 1.79 µM | growth at 0.01 µM [16]: 101% | growth at 1 µM [17]: 57% | growth at 10 µM (MDA-MB-468): -40% | growth at 100 µM [18]: 23% | growth at 0.01 µM [19]: 104% | growth at 100 µM [20]: 30% | growth at 100 µM [21]: 26% | growth at 100 µM [22]: 28%

CNC(=O)c1cc(Oc2ccc3nc(NC(=O)Nc4ccc(F)cc4F)sc3c2)ccn1
growth at 10 µM (CCRF-CEM): 89.7% | growth at 10 µM [1]: 98.3% | growth at 10 µM (K562): 71.5% | growth at 10 µM [2]: 72.9% | growth at 10 µM (NCI-H23): 47% | growth at 10 µM (HT-29): 58.8% | growth at 10 µM [3]: 99.9% | growth at 10 µM [4]: 76.1% | growth at 10 µM [5]: 61.7% | growth at 10 µM (U-251 [6]): 37% | growth at 10 µM (M14): 69.1% | growth at 10 µM (SK-MEL-2): 74.7% | growth at 10 µM (SK-MEL-28): 52.1% | growth at 10 µM (SK-MEL-5): 39% | growth at 10 µM [7]: 74.3% | growth at 10 µM [8]: 34.2% | growth at 10 µM [9]: 45.1% | growth at 10 µM [10]: 45.5% | growth at 10 µM [11]: 76.3% | growth at 10 µM (A498): 10.9% | growth at 10 µM (ACHN): 60.6% | growth at 10 µM [12]: 88.4% | growth at 10 µM [13]: 42.3% | growth at 10 µM (SN12C): 69.2% | growth at 10 µM [14]: 93.5% | growth at 10 µM (MCF7): 66.8% | growth at 10 µM (MDA-MB-468): 51.2%

CNC(=O)c1cc(Oc2ccc3nc(NC(=O)c4ccc5c(c4)OCCO5)sc3c2)ccn1
growth at 10 µM (CCRF-CEM): 98.4% | growth at 10 µM [1]: 93.7% | growth at 10 µM (K562): 91.2% | growth at 10 µM [2]: 97.7% | growth at 10 µM (NCI-H23): 90% | growth at 10 µM (HT-29): 71.3% | growth at 10 µM [3]: 107% | growth at 10 µM [4]: 96.6% | growth at 10 µM [5]: 100% | growth at 10 µM (U-251 [6]): 45.5% | growth at 10 µM (M14): 100% | growth at 10 µM (SK-MEL-2): 113% | growth at 10 µM (SK-MEL-28): 103% | growth at 10 µM (SK-MEL-5): 95.8% | growth at 10 µM [7]: 95% | growth at 10 µM [8]: 97.5% | growth at 10 µM [9]: 100% | growth at 10 µM [10]: 95.8% | growth at 10 µM [11]: 101% | growth at 10 µM (A498): 95.1% | growth at 10 µM (ACHN): 106% | growth at 10 µM [12]: 97.7% | growth at 10 µM [13]: 102% | growth at 10 µM (SN12C): 107% | growth at 10 µM [14]: 105% | growth at 10 µM (MCF7): 90.3% | growth at 10 µM (MDA-MB-468): 108%
